# According to patent publication US8809368B2, “Compounds affecting gap junction activity” (Kansas State University Research Foundation, priority 2006, dated 2014):
# What was measured:
# [1] = MTT assay, cell proliferation and viability, T47D cells; type: cell-based, human; settings: human, T47D breast cancer cells
# Protocol: (§1) T47D breast cancer cells were treated with various concentrations of PQ1 for 24 hours. MTT assay was performed with adherent cell cultures using a culture medium free of phenol red and of serum. Solution containing MTT was metabolized by the cells (incubation period 3 hours). After solubilization of the MTT crystals with the solubilization solution MTT, the amount of dye was measured spectrophotometrically at 540 nm.
# (§2) MTT assay: This assay is done to measure cell proliferation and viability. Yellow MTT (3-(4,5-Dimethylthiazol-2-yl)-2,5-diphenyltetrazolium bromide, a tetrazole) is reduced to purple crystals, formazan in the mitochondria of living cells. A solubilization solution is added to dissolve the insoluble purple formazan product into a colored solution. The absorbance of this colored solution can be measured by a spectrophotometer. T47 D cells (20,000) were grown in 96-well plate and dosed with 10, 100, 200, 500 nM of PQ1 compound in 100 μl of complete media for 24 hours. MTT (20 μl) was added to the cells and purple formazan crystals were observed after 90 minutes. A solubilization solution (0.35 N HCl) was added to dissolve the formazan and the absorbance was measured at 595 nm wavelength with a background wavelength 690 nm by a spectrophotometer.
# (§3) The cytotoxicity of PQ1 in MEC and T47D cells using MTT assay was also determined. Cells were treated with 10, 100, 200, and 500 nM PQ1 for 24 hours. MTT assay was performed according to the manufacture's recommendations. A 200 nM PQ1 has 67% cell viability compared to controls (FIG. 16). Treatments of 100 and 200 nM PQ1 have 95% and 103% MEC cell viability compared to control. However, both MEC and T47D cells decrease cell viability to 50% and 65% at 1 μM PQ1, respectively. Thus, 100-200 nM of PQ1 is sufficient to enhance GJIC activity.
# (§4) MTT assay. […] After solubilization of the MTT crystals with the solubilization solution MTT, the amount of dye will be measured spectrophotometrically at 540 nm.
# T47D cells [2] = experiment: as above; type: cell-based, human; settings: 200 nM, 24 hours
# Protocol: as §1, §2, §3, §4
# [3] = test system: transformed human mammary epithelial cells (HMEC); experiment: Cell proliferation, HMEC; type: cell-based
# Protocol: There was no effect seen on the cell proliferation in transformed human mammary epithelial cells (HMEC, data not shown).
# as §2
# T47D cells [4] = experiment: Transepithelial electrical resistance (TEER), T47D monolayers; type: cell-based, human; settings: 100, 200 or 500 nM, 48 hours, compared to control
# Protocol: T47D cells were treated with 0, 100, 200, and 500 nM PQ1 for 48 hours. TEER assay was performed as described herein. TEER values of each treatment in KΩ/cm^2 were converted to relative percent of control.
# Measurement of transepithelial electrical resistance. Cells were grown to 100% confluency on a 12-well transwell (BD Biosciences, San Jose, Calif.) and treated with 0, 100, 200, and 500 nM PQ1 for 48 hours. Transepithelial electrical resistance (TEER) of the T47D monolayers was measured by a high-precision. Resulting voltages were recorded with the aid of a differential amplifier with a high input resistance. Data were corrected for well area (given in Ω·cm^2).
# Cx43 = experiment: Western blot of Cx43 and phosphoCx43-Ser368 in R28 cells; type: cell-based, rat; settings: PQ1, CoCl2 or a combination of both
# Protocol: (A) About 70% confluent retinal R28 cells were treated with 100, 200 and 500 μM CoCl2 for 24 h with or without the pre-treatment of PQ1 (10 μM, 40 min) in a cell culture chamber (5% CO2, room air, 37° C.). Caspase-3 activation was determined by Western blotting in whole cell homogenates (WCH). (B) HIF1α stabilization was measured in the nuclear extracts (NE) after treatment with 500 μM CoCl2 at different time intervals with or without the pretreatment of PQ1. […] Levels of Cx43 and phosphoCx43-Ser368 are measured in WCH. β-Actin is used as a loading control.
# Western blot. Western blotting was performed as described previously. Anti-Cx43 was purchased from Fred Hutchinson cancer research center (# Cx43NT1), anti-HIF1a was purchased from Novus Biologicals (# NB100-105), and anti-caspase-3 (# 9661), phosphor-Cx43 (Ser368) (#3511S) were purchased from Cell Signaling Technology and anti-b-actin was purchased from Sigma (# A5441).
# Next, it was determined whether PQ1 inhibition of gap junctions could prevent retinal neurosensory R28 cells from apoptosis using a chemical (CoCl2)-induced ischemia system as our model. […] CoCl2 at 500 μM caused stabilization of HIF1a in the nuclear extracts and this stabilization started as early as three hours after treatment (FIG. 20B). This confirmed induction of hypoxia. […]
structure (smiles),measurement,setting,value
"COc1cc(NCCCN)c2nccc(C)c2c1Oc1cccc(C(F)(F)F)c1.O=C(O)CCC(=O)O [PQ1, 6-Methoxy-8-[(3-aminopropyl)amino]-4-methyl-5-(3-trifluoromethylphenyloxy) quinoline succinic acid]","viability at 24 h, 0.2 µM","[1]; 200 nM, 24 hours, read-out: cell viability compared to controls",67%
same,"viability at 24 h, 1 µM",[1]; 1 μM,65%
same,decrease in cell proliferation,T47D cells [2],40%
same,cell proliferation,[3],no effect
same,tight junction ion permeability by TEER,T47D cells [4],no significant effect
same,Cx43 gap junction protein levels,Cx43,did not cause any change
same,phosphorylation of Cx43 at residue ser368,Cx43,did not cause any change
